# “Also recorded” adds a separate entry of the source.
# Assay: Multiple particle tracking of particles in CF sputum with mucolytic pretreatment
# Type: in vitro ADME, human
# Settings: for effect on overall ensemble averaged transport rates of nanoparticles: CF mucus, 30 mins post-treatment, 200 nm particles (rhDNase), 100 nm particles (0.4 mM NAC)
# Experimental: Human respiratory sputum was expectorated from male and female CF patients (ages 18-35). CF sputum samples from multiple patients were pooled, freeze-dried, and reconstituted in sputum buffer by stirring at 4° C. to attain a large volume of homogeneous CF sputum. The volume of sputum buffer added to reconstituted CF sputum samples was determined by mass measurements (the reconstituted CF sputum had the equivalent mass of the fresh CF sputum samples).
# […] Mucus samples (200 μL) were centrifuged and a portion of the supernatant (40 μL) was replaced with mucolytic solution or PBS to maintain the initial concentration of mucus solids and eliminate any dilution effects. The displacements of particles in the no treatment (PBS) control were identical to that of particles embedded in an unprocessed mucus sample, which was not centrifuged. The tracking resolution, evaluated by tracking 500 nm polystyrene probes in glycerol, was […].
# The mechanism of particle transport over short and long time scales was classified based on the concept of relative change (RC) of effective diffusivity (Deff). In brief, RC values of particles at short and long time scales were calculated by dividing the Deff of a particle at a probed time scale by the Deff at an earlier reference time scale. By calculating RC values for two time regimes (i.e., short and long time scales), one can obtain the transport mode that describes the particle transport properties over different length and temporal scales. RCshort was defined at τref=0.2 s and τprobe=1 s, whereas RClong was found at reference τref=1 s and τprobe=2s. An RC standard curve, which plots the 95% distribution range of Deff for purely Brownian particles over time scale, was generated based on Monte Carlo simulations and confirmed by tracking polystyrene nanoparticles in glycerol (data not shown). The transport modes of particles that display RC values below the […] range for either short or long time scales were classified as hindered, and the rest were classified as diffusive. Immobile particles are defined as those that display an average MSD smaller than the 10-nm resolution at a time scale of 1 s.
"increase of transport rates (ensemble geometric mean square displacement) compared to no treatment control (PBS) (500 nm PEG-PS particles, pretreatment of CF mucus with neutralized NAC)",Molecule,"enhancement of diffusive fraction of 500 nm PEG-PS compared to no treatment control (500 nm PEG-PS particles, CF mucus pretreated with NAC)",effect on overall ensemble averaged transport rates of nanoparticles (listed as NAC),effect on overall ensemble averaged transport rates of nanoparticles
10.7 fold,CC(=O)N[C@@H](CS)C(=O)O [N-acetyl-L-cysteine],3 fold,significantly improved; also recorded: increased significantly,
,"rhDNase: mucus degrading agent which hydrolyzes linear DNA, used clinically to increase mucus clearance (protein, UniProt P24855 23-282, looked up) Deoxyribonuclease-1: LKIAAFNIQTFGETKMSNATLVSYIVQILSRYDIALVQEVRDSHLTAVGKLLDNLNQDAPDTYHYVVSEPLGRNSYKERYLFVYRPDQVSAVDSYYYDDGCEPCGNDTFNREPAIVRFFSRFTEVREFAIVPLHAAPGDAVAEIDALYDVYLDVQEKWGLEDVMLMGDFNAGCSYVRPSQWSSIRLWTSPTFQWLIPDSADTTATPTHCAYDRIVVAGMLLRGAVVPDSALPFNFQAAYGLSDQLAQAISDHYPVEVMLK",,,reduced the overall ensemble averaged transport rates; also recorded: did not correlate to improved particle transport
